Measured values as given in patent US8536157B2, “Non-steroidal compounds” (The University of Melbourne, priority 2007, dated 2013).
pIC50: −log10 of the molar value.

Legend:
[1] = target: proteins in rat lung membranes; experiment: Competitive binding assay with [3H]-CP2117 on rat lung membranes (RLM); conditions: given as Log IC50 (negative values); displacement of 10 nM [3H]-CP2117, overnight at 4° C.; ND- not detected
[2] = test system: human airway smooth muscle (HASM) cells; experiment: Proliferation of human airway smooth muscle cells in response to thrombin (cell counting); assay type: cell-based; conditions: given as Log IC50 (negative values), thrombin 0.3 U/ml, 48 h, compound pre-incubated 30 minutes
From the text: (§1) 3. Effects of Compounds on the Proliferation of Cells in Response to the Proliferative Stimulus of Either Thrombin (Human Airway Smooth Muscle) or Basic Fibroblast Growth Factor (bFGF)(Human Lung Parenchymal Fibroblasts, pFb)
(§2) The effects of compounds of the present invention on the proliferation of cells in response to the proliferative stimulus of either thrombin (human airway smooth muscle) or basic fibroblast growth factor (bFGF)(human lung parenchymal fibroblasts, pFb) were investigated. Cells were seeded onto 6-well plates at a density of 1.5×10^4 cells cm^2, made quiescent by removal of serum-containing media for 24 hours and then stimulated for 48 h with either thrombin (0.3 U/ml) or bFGF (300 pM). The test compounds were pre-incubated with HASM or pFb cells for 30 minutes before the addition of thrombin. At the end of the 48 hour incubation period, cells were detached from the culture plate by trypsin (0.5% w/v in PBS containing 1 mM EDTA), incubated for 5 minutes at ambient temperature in PBS containing 0.5% (w/v) trypan blue, washed twice (2% FCS in PBS), isolated by centrifugation (12,000×g, 5 min) and resuspended in 200 μl 2% FCS in PBS for counting in a haemocytometer chamber.
Human airway smooth muscle (HASM) cells were cultured from macroscopically normal bronchi (0.5-2 cm diameter) obtained from lung resection or heart-lung transplant specimens provided by the Alfred Hospital (Melbourne) according to methods published in detail previously (Fernandes et al., 1999).
Approximately 0.1 g of smooth muscle was stripped from the wall of the bronchus for each cell culture. Dissected tissue was immersed in Dulbecco's modified Eagle's medium (DMEM) (Flow Laboratories, Scotland), supplemented with 100 U/mL penicillin G (CSL, Australia) and 100 μg/mL streptomycin (CSL, Australia). The tissue was rinsed in phosphate buffered saline (PBS; Oxoid, England) and the airway smooth muscle was chopped into 2 mm^3 pieces and digested for 2 hours in DMEM containing elastase (0.5 mg/mL: Worthington Biochemical, USA) followed by a 12 hour incubation in DMEM containing collagenase (1 mg/mL) (Worthington Biochemical, USA), at 37° C. with agitation.
The resulting cell suspension was centrifuged and washed three times in phosphate buffered saline (PBS). Following the last centrifugation step, the cells were resuspended in 25 mL of DMEM supplemented with L-glutamine (2 mM: Sigma, USA), penicillin G (100 U/mL), streptomycin (100 μg/mL), amphotericin B (2 μg/mL: Wellcome, UK) and heat-inactivated FCS (10% v/v: CSL, Australia) and seeded into 25 cm^2 culture flasks. The primary isolates were incubated for 7 to 14 days to reach confluence. […]

[3] = test system: PGE2 release in J774 macrophages; experiment: PGE2 release from LPS/IFNγ-stimulated J774 macrophages (radioimmunoassay); assay type: cell-based, murine; conditions: Mus musculus, J774, 24 h, 30 min pre-treatment, 24 hour incubation; for activity at 1 µM: read-out: Effects on PGE2 release in J774 macrophages at 1 μM as a % of LPS/IFNγ control, mean; for activity at 10 µM: l0 μM, read-out: Effects on PGE2 release in J774 macrophages at l0 μM as a % of LPS/IFNγ control, mean
[4] = test system: human lung parenchymal fibroblasts, pFb; experiment: Proliferation of human lung parenchymal fibroblasts in response to bFGF (cell counting); assay type: cell-based; conditions: Fibroblast, given as Log IC50 (negative values), bFGF 300 pM, 48 h
From the text: as §1
as §2, with “chamber. […]” for “chamber.”

[5] = see WO 2004/101595; cited from earlier work
[6] = test system: LPS-induced pulmonary inflammation in mice; experiment: Model of pulmonary inflammation induced by intra-nasal delivery of LPS; assay type: in vivo; conditions: CP933 150 mg/kg ip, dexamethasone 1 mg/kg ip, 2 hours after intranasal LPS
Description: The effect of the compounds of the present invention on BAL cell number, total BAL protein and inflammatory gene expression may be analysed. As an example, female Balb/c mice (17-21 g) may be given a single intraperitoneal (i.p.) injection of vehicle or CP92 (150, 50, 15 and 5 mg/kg in peanut oil DMSO). Two hours after the mice would be anaesthetised with methoxyflurane and a droplet of LPS (1 μg in saline) or sterile saline would be applied to the nose. As the animals breathe through their nose, the LPS or saline would be inhaled and gain access to the lung tissue. Twenty four hours post-LPS administration, mice would be euthanized with a mixture of 200 μl ketamine and 10 μl xylazine i.p., tracheotomised and bronchoalveolar lavage (BAL) performed for the assessment of cell number, cell type and protein content. The lungs would be removed and weighed as an indicator of any adverse effects of the drug treatment. Total RNA would be isolated from the lung tissues for analysis of gene expression (mRNA) using RT-PCR.

[7] = test system: PGE2 release in U937 cells; experiment: PGE2 release from PMA-treated U937 cells (radioimmunoassay); assay type: cell-based, human; conditions: Homo sapiens, U-937, 24 h, 24 hour incubation, read-out: Effects on PGE2 release in U937 cells at 1 μM as a % of PMA control, mean
Description: The U937 monocytic cell line (available from the ATCC, USA) is commonly used to evaluate anti-inflammatory agents. In the present experiment, U937 cells maintained in culture in a medium comprising RPMI containing (5% FCS v/v; supplemented with 100 U/ml penicillin, and […] streptomycin) were treated with phorbol myristate acetate (10 nM) then immediately dispersed into a 24 well cell culture plate at a concentration of 2×10^5 cells per ml in a volume of 1 ml per well. After 24 hours by which time the cells had adhered to the plastic substrate, they were treated with one of several analogues or with the vehicle of 0.1% DMSO. After a further 24 hour incubation period the supernatant was harvested and the content of prostaglandin E2 was measured by a radioimmunoassay, as described by Vlahos, R., & Stewart, A. G. (1999). (“Interleukin-1α and Tumour necrosis factor-α inhibit airway smooth muscle DNA synthesis by a glucocorticoid-sensitive induction of cyclo-oxygenase-2. British Journal of Pharmacology, 126, 1315-1324). […] The data in the table are presented as percentage of the control level of Prostaglandin E2.
Several analogues were evaluated for their actions on the release of PGE2 from the human U937macrophage cell line. Cells were stimulated by exposure to PMA 1 nM and after a period allowed for adherence of cells to the plastic culture dish, the cell were treated with one of several CP analogues. […] The chemical structures of CP1-56 and CP1-58 are as follows: […]

Question: For `COc1ccc(/C(C)=N/OCc2ccc([N+](=O)[O-])cc2)cc1O` [CP30218, (E)-3′-Hydroxy-4′-methoxyacetophenone O-4-Nitrobenzyl Oxime], which melting point is on record?
Answer: 105 to 105.7 °C

Question: And the “Log IC50 RLM binding” value [1]?
Answer: −6.44

Question: What about the pIC50 [2] of the same molecule?
Answer: 5.23

Question: And the activity at 1 µM [3]?
Answer: 218%

Question: What about the activity at 10 µM [3] of the same molecule?
Answer: 188%

Question: And the pIC50 [4]?
Answer: 8.18

Question: With `CCC(=NOCc1ccc([N+](=O)[O-])cc1)c1cc(O)c(OC)cc1I` [CP30222, 5′-Hydroxy-2′-iodo-4′-methoxypropiophenone O-4-Nitrobenzyl Oxime] as the molecule, how does the pIC50 [2] read?
Answer: 8.08

Question: With `CCC(=NOCc1ccc([N+](=O)[O-])cc1)c1ccc(OC)c(O)c1` [CP30221, 3′-Hydroxy-4′-methoxypropiophenone O-4-Nitrobenzyl Oxime] as the molecule, how does the pIC50 [2] read?
Answer: 5.54

Question: With `COc1cc(I)c(C(C)=NOCc2ccc([N+](=O)[O-])cc2)cc1O` [CP30220-minor (Z-), 5′-Hydroxy-2′-iodo-4′-methoxyacetophenone O-4-Nitrobenzyl Oxime] as the molecule, how does the pIC50 [2] read?
Answer: 7.41

Question: For `COc1cc2c(cc1O)C(=NOCc1ccc([N+](=O)[O-])cc1)C[C@@H]1[C@@H]2CC[C@]2(C)[C@@H](O)CC[C@@H]12` [CP-2117, 2-methoxy-6-(4-nitrobenzyloxyimino)estradiol], which “anti-inflammatory activity in vitro” value [5] is on record?
Answer: anti-inflammatory activity

Question: With `COc1ccc(/C(C)=N/OCc2ccc3nonc3c2)cc1O` [CP933, 1-(3-hydroxy-4-methoxyphenyl)ethanone-O-[(benzo[c][1,2,5]oxadiazol-5-yl)methyl]oxime] as the molecule, how does the “Log IC50 RLM binding” value [1] read?
Answer: −6.185

Question: And the activity at 1 µM [3]?
Answer: 109%

Question: And the activity at 10 µM [3]?
Answer: 87%

Question: And the “Airspace (pulmonary) neutrophilia” value ([6]; FIG. 1A)?
Answer: attenuated the airspace neutrophilia

Question: What about the “Protein in the broncho-alveolar lavage (BAL) fluid” value ([6]; FIG. 1B) of the same molecule?
Answer: reduced accumulation of protein

Question: Which results are given for `COc1ccc(/C(C)=N/OCc2ccc3nonc3c2)cc1O` [AA-1-80]?
Answer: Log IC50 RLM binding [1]: −6.33; activity at 1 µM [7]: 38%
